Measurements from patent US10689331B2, “IDO inhibitors” (Bristol-Myers Squibb Company, priority 2015, dated 2020).
Where a name gives a salt, the structure may show the parent alone.

Target: T1, human IDO1 (Homo sapiens, UniProt P14902)
T1 construct: expressed in transfected cells
Assay: HEK Human IDO-1 inhibition assay (kynurenine readout, Ehrlich reagent, absorbance 490 nm)
Type: cell-based
Details: human IDO1/HEK293 cells, incubated 20 hours with compound; 500 nM reference standard = 100% inhibition
Procedure: HEK293 cells were transfected with a pCDNA-based mammalian expression vector harboring human IDO1 cDNA (NM 002164.2) by electroporation. They were cultured in medium (DMEM with 10% FBS) containing 1 mg/ml G418 for two weeks. Clones of HEK293 cells that stably expressed human IDO1 protein were selected and expanded for IDO inhibition assay.
The human IDO1/HEK293 cells were seeded at 10,000 cells per 50 uL per well with RPMI/phenol red free media contains 10% FBS in a 384-well black wall clear bottom tissue culture plate (Matrix Technologies LLC) 100 nL of certain concentration of compound was then added to each well using ECHO liquid handling systems. The cells were incubated for 20 hours in 37° C. incubator with 5% CO2.
The compound treatments were stopped by adding Trichloroacetic Acid (Sigma-Aldrich) to a final concentration at 0.2%. The cell plate was further incubated at 50° C. for 30 minute. The equal volume supernatant (20 uL) and 0.2% (w/v) Ehrlich reagent (4-dimethylaminobenzaldehyde, Sigma-Aldrich) in glacial acetic acid were mixed in a new clear bottom 384-well plate. This plate was then incubated at room temperature for 30 minute. The absorbance at 490 nm was measured on Envision plate reader. Compound IC50 values were calculated using the counts of 500 nM of a reference standard treatment as one hundred percent inhibition, and counts of no compound but DMSO treatment as zero percent inhibition.

T1 sequence (P14902 whole entry): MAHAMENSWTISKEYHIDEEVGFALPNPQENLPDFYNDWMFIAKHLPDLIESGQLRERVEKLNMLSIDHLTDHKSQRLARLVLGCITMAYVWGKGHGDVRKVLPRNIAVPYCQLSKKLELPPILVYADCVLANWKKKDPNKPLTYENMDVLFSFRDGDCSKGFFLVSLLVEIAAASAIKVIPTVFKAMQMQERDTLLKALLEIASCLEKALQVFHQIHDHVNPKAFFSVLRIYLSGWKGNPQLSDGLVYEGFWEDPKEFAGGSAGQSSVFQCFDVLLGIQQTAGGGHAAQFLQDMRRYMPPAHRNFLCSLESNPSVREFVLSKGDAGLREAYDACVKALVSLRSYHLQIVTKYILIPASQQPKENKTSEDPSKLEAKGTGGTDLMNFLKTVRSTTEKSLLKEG

| Structure (SMILES) | IC50 [nM] |
| --- | --- |
| CC(C)CN(c1ccc(OCC(=O)O)cc1Nc1nc2ccccc2o1)C1CCCCC1 [Example 44, 2-(3-(benzo[d]oxazol-2-ylamino)-4-(cyclohexyl(isobutyl)amino)phenoxy)acetic acid] | ≥ 100 |
| CC(C)CN(c1ccc(OCC(=O)O)cc1NC(=O)Nc1ccncc1)C1CCCCC1 [Example 5, 2-(4-(cyclohexyl(isobutyl)amino)-3-(3-(pyridin-4-yl)ureido)phenoxy)acetic acid] | ≥ 100 |
| Cc1ccc(NC(=O)Nc2cc(OCC(=O)NS(=O)(=O)N(C)C)ccc2N(CC(C)C)C2CCCCC2)cc1 [Example 52, 2-(4-(cyclohexyl(isobutyl)amino)-3-(3-(p-tolyl)ureido)phenoxy)-N—(N,N-dimethylsulfamoyl)acetamide] | < 100 |
| Cc1cc(F)ccc1NC(=O)Nc1cc(OCC(=O)O)ccc1N(CC(C)C)C1CCCCC1 [Example 38, 2-(4-(cyclohexyl(isobutyl)amino)-3-(3-(4-fluoro-2-methylphenyl)ureido)phenoxy) acetic acid] | ≥ 100 |
| CC(C)CN(c1ccc(OCC(=O)O)cc1NC(=O)Nc1ccc(F)cc1)C1CCCCC1 [Example 17, 2-(4-(cyclohexyl(isobutyl)amino)-3-(3-(4-fluorophenyl)ureido)phenoxy)acetic acid] | < 100 |
| CC(C)CN(c1ccc(OCC(=O)O)cc1NC(=O)Nc1cccnc1)C1CCCCC1 [Example 3, 2-(4-(cyclohexyl(isobutyl)amino)-3-(3-(pyridin-3-yl)ureido)phenoxy)acetic acid] | ≥ 100 |
| COc1ccc(NC(=O)Nc2cc(OCC(=O)O)ccc2N(CC(C)C)C2CCCCC2)cc1F [Example 34, 2-(4-(cyclohexyl(isobutyl)amino)-3-(3-(3-fluoro-4-methoxyphenyl)ureido)phenoxy) acetic acid] | ≥ 100 |
| CC(C)CN(c1ccc(OC(C)C(=O)O)cc1NC(=O)Nc1cncnc1)C1CCCCC1 (single isomer, unassigned) [Example 58-2, 2-(4-(cyclohexyl(isobutyl)amino)-3-(3-(pyrimidin-5-yl)ureido)phenoxy)propanoic acid] | < 100 |
| COc1cc(F)c(NC(=O)Nc2cc(OCC(=O)O)ccc2N(CC(C)C)C2CCCCC2)cc1F [Example 29, 2-(4-(cyclohexyl(isobutyl)amino)-3-(3-(2,5-difluoro-4-methoxy-phenyl)ureido)phenoxy)acetic acid] | < 100 |
| CC(C)CN(c1ccc(OCC(=O)O)cc1NC(=O)Nc1c(F)cccc1F)C1CCCCC1 [Example 19, 2-(4-(cyclohexyl(isobutyl)amino)-3-(3-(2,6-difluorophenyl)ureido)phenoxy)acetic acid] | ≥ 100 |
| CC(C)CN(c1ccc(OCC(=O)O)cc1NC(=O)Cc1ccc(F)cc1F)C1CCCCC1 [Example 56, 2-(4-(cyclohexyl(isobutyl)amino)-3-(2-(2,4-difluorophenyl)acetamido)phenoxy)acetic acid] | ≥ 100 |

Other lines, results leading:

| IC50 [nM] | Structure (SMILES) |
| --- | --- |
| < 5 | Cc1ccc(NC(=O)Nc2cc(OC(C)C(=O)NS(=O)(=O)C3CC3)ccc2N(CC(C)C)C2CCCCC2)cc1 (racemic) [Example 69, (±)-2-(4-(cyclohexyl(isobutyl)amino)-3-(3-(p-tolyl)ureido)phenoxy)-N-(cyclopropylsulfonyl)propanamide] |
| ≥ 100 | C=C(C)CN(c1ccc(OC(C)C(=O)O)cc1NC(=O)Nc1ccc(C)cc1)C1CCOCC1 (racemic) [Example 140, (+/−)-2-(4-((2-methylallyl)(tetrahydro-2H-pyran-4-yl)amino)-3-(3-(p-tolyl)ureido)phenoxy)propanoic acid] |
| < 100 | CC(C)CN(c1cc(F)c(OCC(=O)O)cc1NC(=O)Nc1ccccc1F)C1CCCCC1 [Example 129] |
| < 100 | CCC(Oc1ccc(N(CC(C)C)C2CCOCC2)c(NC(=O)Nc2ccc(Cl)cc2F)c1)C(=O)O (single isomer, unassigned) [Example 143-1, 2-(3-(3-(4-chloro-2-fluorophenyl)ureido)-4-(isobutyl(tetrahydro-2H-pyran-4-yl)amino)phenoxy)butanoic acid] |
| < 5 | Cc1ccc(NC(=O)Nc2cc(OC(C)C(=O)O)ccc2N(CC(C)C)C2CCCCC2)c(F)c1 (single isomer, unassigned) [Example 65-2, 2-(4-(cyclohexyl(isobutyl)amino)-3-(3-(2-fluoro-4-methylphenyl)ureido)phenoxy)propanoic acid] |
| < 100 | C=C(C)CN1CCC(N(CC(=C)C)c2ccc(OCC(=O)O)cc2NC(=O)Nc2ccc(Cl)cc2F)CC1 [Example 142, 2-(3-(3-(4-chloro-2-fluorophenyl)ureido)-4-((2-methylallyl)(1-(2-methylallyl)piperidin-4-yl)amino)phenoxy)acetic acid] |
| < 100 | C=C(C)CN(c1ccc(OCC(=O)O)cc1NC(=O)Nc1ccc(Cl)cc1F)C1CCOCC1 [Example 137, 2-(3-(3-(4-chloro-2-fluorophenyl)ureido)-4-((2-methylallyl)(tetrahydro-2H-pyran-4-yl)amino)phenoxy)acetic acid] |
| ≥ 100 | CC(C)CN(c1ccc(OC(C)C(=O)NS(=O)(=O)C2CC2)cc1NC(=O)Cc1ccc(Cl)c(F)c1)C1CCCCC1 (racemic) [Example 79, (±)-2-(3-(2-(4-chloro-3-fluorophenyl)acetamido)-4-(cyclohexyl(isobutyl)amino)phenoxy)-N-(cyclopropylsulfonyl) propanamide] |
| < 5 | COc1ccc(NC(=O)Nc2cc(OC(C)C(=O)O)ccc2N(CC(C)C)C2CCCCC2)c(F)c1 (racemic) [racemic 64] |
| < 100 | Cc1ccc(NC(=O)Nc2cc(OCC(=O)O)ccc2N(CC(C)C)C2CCCCC2)cc1 [Example 109, 2-(4-(cyclohexyl(isobutyl)amino)-3-(3-(p-tolyl)ureido)phenoxy)acetic acid] |
| < 5 | CC(C)CN(c1c(F)cc(OCC(=O)O)cc1NC(=O)Nc1cc(F)ccc1F)C1CCCCC1 [Example 106, 2-(4-(cyclohexyl(isobutyl)amino)-3-(3-(2,5-difluorophenyl)ureido)-5-fluorophenoxy)acetic acid] |
| < 5 | CC(C)CN(c1ncc(OCC(=O)NS(=O)(=O)C2CC2)cc1NC(=O)Nc1ccc(Cl)cc1F)C1CCCCC1 [Example 103, 2-((5-(3-(4-chloro-2-fluorophenyl)ureido)-6-(cyclohexyl(isobutyl)amino)pyridin-3-yl)oxy)-N-(cyclopropylsulfonyl)acetamide] |
| < 5 | CC(C)CN(c1cc(F)c(OC(C)C(=O)O)cc1NC(=O)Nc1ccc(Cl)cc1F)C1CCCCC1 (single isomer, unassigned) [Example 136-1, 2-(5-(3-(4-chloro-2-fluorophenyl)ureido)-4-(cyclohexyl(isobutyl)amino)-2-fluorophenoxy)propanoic acid.TFA] |
| ≥ 100 | CCCN(Cc1ccccc1)c1ccc(OCC(=O)O)cc1NC(=O)Cc1ccc(Cl)cc1F [Example 165, 2-(4-(benzyl(propyl)amino)-3-(2-(4-chloro-2-fluorophenyl)acetamido)phenoxy)acetic acid] |
| ≥ 100 | CCCN(Cc1ccccc1)c1ccc(OCC(=O)O)cc1NC(=O)Nc1ccc(OC(F)(F)F)cc1 [Example 160, 2-(4-(benzyl(propyl)amino)-3-(3-(4-(trifluoromethoxy)phenyl)ureido)phenoxy)acetic acid] |
| < 5 | CC(C)CN(c1ccc(OCC(=O)Nc2ncco2)cc1NC(=O)Nc1ccc(Cl)cc1F)C1CCCCC1 [Example 154, 2-(3-(3-(4-chloro-2-fluorophenyl)ureido)-4-(cyclohexyl(isobutyl)amino)phenoxy)-N-(oxazol-2-yl)acetamide] |
